In patent US20260007133A1, “HERBICIDAL COMPOSITION COMPRISING AZINE COMPOUNDS” (BASF SE, priority 2022, published 2026):

What was measured:
Assay type in all cases: in vivo
Abutilon theophrasti [1] = assay: Greenhouse pre-emergence (PRE) herbicidal test on ABUTH; settings: for % activity: 20 DAT
Experimental: (§1) The culture containers used were plastic pots containing loamy sand with approximately 3.0% of humus as substrate. The seeds of the test plants were sown separately for each species.
(§2) The containers were irrigated gently to promote germination and growth and subsequently covered with transparent plastic hoods until the plants had rooted.
(§3) Depending on the species, the plants were kept at 10-25° C. and 20-35° C., respectively.
(§4) The test period extended over 2 to 4 weeks. During this time, the plants were tended and their response to the individual treatments was evaluated.
(§5) Evaluation was carried out using a scale from 0 to 100. 100 means no emergence of the plants, or complete destruction of at least the above-ground parts, and 0 means no damage or normal course of growth. A good herbicidal activity is given at values of at least 70, and very good herbicidal activity is given at values of at least 85.
(§6) As indicated application was either post emergent (POST) at the respective growth stage (GS) of the weed (BBCH code), or pre-emergent (PRE). […]

Ambrosia artemisiifolia = assay: Greenhouse pre-emergence (PRE) herbicidal test on AMBEL; settings: PRE, AMBEL
Experimental: as §1, §2, §3, §4, §5, §6

Euphorbia heterophylla [2] = assay: Greenhouse pre-emergence (PRE) herbicidal test on EPHHL; settings: Euphorbia heterophylla, pre-emergence
Experimental: as §1, §2, §3, §4, §5, §6

Abutilon theophrasti [3] = assay: Greenhouse post-emergence (POST) herbicidal test on ABUTH; settings: for % activity: ABUTH POST
Experimental: as §1
(§7) For the post-emergence treatment, the test plants were grown to a plant height of from 3 to 15 cm, depending on the plant habit, and only then treated with the active compounds which had been suspended or emulsified in water. To this end, the test plants were either sown directly, and grown in the same containers, or they were first grown separately as seedlings and transplanted into the test containers a few days prior to treatment.
as §3, §4, §5
(§8) If not stated differently, the respective components A and B, and if appropriate, C were formulated as a 5% by weight strength emulsion concentrate and, with addition of the amount of solvent system, introduced into the spray liquor used for applying the active compound.
as §6

Amaranthus retroflexus = assay: Greenhouse post-emergence (POST) herbicidal test on AMARE
Experimental: as §1, §7, §3, §4, §5, §8, §6

Echinochloa crus-galli [4] = assay: Greenhouse post-emergence (POST) herbicidal test on ECHCG
Experimental: as §1, §7, §3, §4, §5, §8, §6

Euphorbia heterophylla [5] = assay: Greenhouse post-emergence (POST) herbicidal test on EPHHL
Experimental: as §1, §7, §3, §4, §5, §8, §6

Geranium pusillum = assay: Greenhouse post-emergence (POST) herbicidal test on GERPU
Experimental: as §1, §7, §3, §4, §5, §8, §6

Alopecurus myosuroides = assay: Greenhouse pre-emergence (PRE) herbicidal test on ALOMY; settings: Alopecurus myosuroides, pre-emergence, 432 h, read-out: % activity
Experimental: as §1, §2, §3, §4, §5, §6

Commelina benghalensis = assay: Greenhouse pre-emergence (PRE) herbicidal test on COMBE
Experimental: as §1, §2, §3, §4, §5, §6

Echinochloa crus-galli [6] = assay: Greenhouse pre-emergence (PRE) herbicidal test on ECHCG; settings: Echinochloa crus-galli, pre-emergence, 432 h, read-out: % activity
Experimental: as §1, §2, §3, §4, §5, §6

Lolium multiflorum = assay: Greenhouse pre-emergence (PRE) herbicidal test on LOLMU; settings: Lolium multiflorum, pre-emergence, read-out: % activity
Experimental: as §1, §2, §3, §4, §5, §6

Digitaria sanguinalis = assay: Greenhouse post-emergence (POST) herbicidal test on DIGSA; settings: Digitaria sanguinalis, post-emergence, read-out: % activity
Experimental: as §1, §7, §3, §4, §5, §8, §6

Setaria viridis = assay: Greenhouse pre-emergence (PRE) herbicidal test on SETVI
Text: as §1
For the pre-emergence treatment, the active compounds, suspended or emulsified in water, were applied directly after sowing by means of finely distributing nozzles. The containers were irrigated gently to promote germination and growth and subsequently covered with transparent plastic hoods until the plants had rooted. This cover caused uniform germination of the test plants unless this was adversely affected by the active compounds.
as §3, §4, §5, §8, §6

[7] = Geranium pusillum, post-emergence, 432 h, read-out: % activity
[8] = Abutilon theophrasti, pre-emergence, read-out: % activity
[9] = Echinochloa crus-galli, post-emergence, 480 h, read-out: % activity

C#CC(C)(C)NC(=O)c1cc(Cl)cc(Cl)c1 [Propyzamide, propyzamide]
pest or weed control at 250 g/ha (Abutilon theophrasti [1]; Abutilon theophrasti, pre-emergence, 432 h, PRE, ABUTH, Propyzamide solo 250 gai/ha, 18 DAT): 0% | pest or weed control at 1000 g/ha (Abutilon theophrasti [1]; Abutilon theophrasti, pre-emergence, 432 h, PRE, ABUTH, Propyzamide solo 1000 gai/ha, 18 DAT): 10% | pest or weed control at 250 g/ha (Ambrosia artemisiifolia; Ambrosia artemisiifolia, pre-emergence, 432 h, Propyzamide solo 250 gai/ha, 18 DAT, read-out: % activity): 0% | pest or weed control at 250 g/ha (Euphorbia heterophylla [2]; 432 h, PRE, EPHHL, Propyzamide solo 250 gai/ha, 18 DAT, read-out: % activity): 10% | pest or weed control at 1000 g/ha (Euphorbia heterophylla [2]; 432 h, PRE, EPHHL, Propyzamide solo 1000 gai/ha, 18 DAT): 15% | pest or weed control at 1000 g/ha (Abutilon theophrasti [3]; Abutilon theophrasti, post-emergence, 432 h, POST, ABUTH, Propyzamide solo 1000 gai/ha, 18 DAT): 5% | pest or weed control at 250 g/ha (Amaranthus retroflexus; Amaranthus retroflexus, post-emergence, 432 h, POST, AMARE, Propyzamide solo 250 gai/ha, 18 DAT, read-out: % activity): 20% | pest or weed control at 1000 g/ha (Amaranthus retroflexus; Amaranthus retroflexus, post-emergence, 432 h, POST, AMARE, Propyzamide solo 1000 gai/ha, 18 DAT): 50% | pest or weed control at 250 g/ha (Echinochloa crus-galli [4]; Echinochloa crus-galli, post-emergence, 432 h, POST, ECHCG, Propyzamide solo 250 gai/ha, 18 DAT, read-out: % activity): 0% | pest or weed control at 1000 g/ha (Echinochloa crus-galli [4]; Echinochloa crus-galli, post-emergence, 432 h, POST, ECHCG, Propyzamide solo 1000 gai/ha, 18 DAT): 30% | pest or weed control at 250 g/ha (Euphorbia heterophylla [5]; Euphorbia heterophylla, post-emergence, 432 h, POST, EPHHL, Propyzamide solo 250 gai/ha, 18 DAT, read-out: % activity): 0% | pest or weed control at 1000 g/ha (Geranium pusillum; Geranium pusillum, post-emergence, 432 h, POST, GERPU, Propyzamide solo 1000 gai/ha, 18 DAT): 20%

N#Cc1cc(Br)c(O)c(Br)c1 [Bromoxynil, bromoxynil]
pest or weed control at 120 g/ha (Abutilon theophrasti [1]; Abutilon theophrasti, pre-emergence, 432 h, read-out: % activity): 0% | pest or weed control at 30 g/ha (Alopecurus myosuroides): 0% | pest or weed control at 120 g/ha (Alopecurus myosuroides): 0% | pest or weed control at 30 g/ha (Commelina benghalensis; Commelina benghalensis, pre-emergence, 432 h, read-out: % activity): 0% | pest or weed control at 30 g/ha (Echinochloa crus-galli [6]): 0% | pest or weed control at 120 g/ha (Echinochloa crus-galli [6]): 0% | pest or weed control at 30 g/ha (Euphorbia heterophylla [2]; 432 h, read-out: % activity): 0% | pest or weed control at 30 g/ha (Lolium multiflorum; 432 h): 0% | pest or weed control at 120 g/ha (Lolium multiflorum; 432 h): 0% | pest or weed control at 30 g/ha (Amaranthus retroflexus; Amaranthus retroflexus, post-emergence, 432 h, read-out: % activity): 0% | pest or weed control at 30 g/ha (Digitaria sanguinalis; 432 h): 0% | pest or weed control at 120 g/ha (Digitaria sanguinalis; 432 h): 15% | pest or weed control at 30 g/ha (Echinochloa crus-galli [4]; Echinochloa crus-galli, post-emergence, 432 h, read-out: % activity): 0% | pest or weed control at 30 g/ha (Euphorbia heterophylla [5]; Euphorbia heterophylla, post-emergence, 432 h, read-out: % activity): 70% | pest or weed control at 30 g/ha (Geranium pusillum; [7]): 5% | pest or weed control at 120 g/ha (Geranium pusillum; [7]): 20%

O=C(O)COc1ccc(Cl)cc1Cl [2,4-D]
% activity (Echinochloa crus-galli [4]; ECHCG POST, use rate 37.5 gai/ha): 20% | % activity (Euphorbia heterophylla [5]; EPHHL POST, use rate 150 gai/ha): 65% | % activity (Geranium pusillum; GERPU POST, use rate 150 gai/ha): 70%

COC[C@H](C)N(C(=O)CCl)c1c(C)csc1C [Dimethenamid-P, dimethenamid-P]
% activity (Abutilon theophrasti [3]; use rate 50 gai/ha): 0% | % activity (Abutilon theophrasti [3]; use rate 200 gai/ha): 25% | % activity (Amaranthus retroflexus; AMARE POST, use rate 200 gai/ha): 0%

COc1cc(OC)n2nc(NS(=O)(=O)c3c(C(F)(F)F)ccnc3OC)nc2n1 [Pyroxsulam, pyroxsulam]
% activity (Abutilon theophrasti [1]; PRE, ABUTH, Pyroxsulam solo 0.25 gai/ha): 0% | % activity (Abutilon theophrasti [1]; PRE, ABUTH, Pyroxsulam solo 0.5 gai/ha): 5% | % activity (Ambrosia artemisiifolia; Pyroxsulam solo 0.25 gai/ha, 20 DAT): 15% | % activity (Commelina benghalensis; PRE, COMBE, Pyroxsulam solo 0.25 gai/ha, 20 DAT): 10% | % activity (Setaria viridis; PRE, SETVI, Pyroxsulam solo 0.25 gai/ha, 20 DAT): 10%

C/C(=N\NC(=O)Nc1cc(F)cc(F)c1)c1ncccc1C(=O)O [Diflufenzopyr, diflufenzopyr]
inhibition at 3.8 g/ha (Abutilon theophrasti [1]; [8]): 0% | inhibition at 15 g/ha (Abutilon theophrasti [1]; [8]): 0% | inhibition at 3.8 g/ha (Euphorbia heterophylla [2]; read-out: % activity): 0% | inhibition at 3.8 g/ha (Lolium multiflorum): 0% | inhibition at 15 g/ha (Setaria viridis; Setaria viridis, pre-emergence, read-out: % activity): 50%

CP(=O)(O)CCC(N)C(=O)O (centres unmarked) [Glufosinate-Ammonium, glufosinate-ammonium]
inhibition at 75 g/ha (Abutilon theophrasti [3]; Abutilon theophrasti, post-emergence, 480 h, read-out: % activity): 30% | inhibition at 150 g/ha (Digitaria sanguinalis; 480 h): 95% | inhibition at 75 g/ha (Echinochloa crus-galli [4]; [9]): 0% | inhibition at 150 g/ha (Echinochloa crus-galli [4]; [9]): 30% | inhibition at 150 g/ha (Euphorbia heterophylla [5]; Euphorbia heterophylla, post-emergence, 480 h, read-out: % activity): 45% | inhibition at 75 g/ha (Geranium pusillum; Geranium pusillum, post-emergence, 480 h, read-out: % activity): 35%
